Source: ChEMBL document CHEMBL1201862, “PubChem BioAssay data set” (2004)
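Dose response: 5 concentrations. Exposure: 48 h. Format: 96-well plates. Endpoint: linear interpolation; highest concentration if not reached. Abbreviation: GI50, concentration required for 50% inhibition of growth.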 The source made the active and inactive calls. Rule as the data show it: active = GI50 up to about 1.1 µM and inactive = higher.

Legend:
Assay in all cases: NCI tumour cell line growth inhibition, 48 h
A498 = test system: A498
ACHN = test system: ACHN
BT-549 = test system: BT-549
EKVX = test system: EKVX
HT-29 = test system: HT-29
MDA-N = test system: MDA-N
NCI-H460 = test system: NCI-H460
OVCAR-3 = test system: OVCAR-3
OVCAR-8 = test system: OVCAR-8
SF-268 = test system: SF-268
SF-539 = test system: SF-539
SK-MEL-2 = test system: SK-MEL-2
SK-OV-3 = test system: SK-OV-3
SN12C = test system: SN12C
SNB-75 = test system: SNB-75
SW-620 = test system: SW-620
UACC-257 = test system: UACC-257
M19-MEL = test system: M19-MEL
XF498 = test system: XF498
DMS-273 = test system: DMS-273

Structure (SMILES) | GI50 (A498) | GI50 (ACHN) | GI50 (BT-549) | GI50 (EKVX) | GI50 (HT-29) | GI50 (MDA-N) | GI50 (NCI-H460) | GI50 (OVCAR-3) | GI50 (OVCAR-8) | GI50 (SF-268) | GI50 (SF-539) | GI50 (SK-MEL-2) | GI50 (SK-OV-3) | GI50 (SN12C) | GI50 (SNB-75) | GI50 (SW-620) | GI50 (UACC-257) | GI50 (M19-MEL) | GI50 (XF498) | GI50 (DMS-273)
O=C1NC(=S)NC(=O)C1=Cc1cccc2cc3ccccc3cc12 | 1.97 µM (inactive) | 1.95 µM (inactive) | 1.71 µM (inactive) | 2.91 µM (inactive) | 2.13 µM (inactive) | 2.19 µM (inactive) | 2.12 µM (inactive) | 1.76 µM (inactive) | 1.86 µM (inactive) | 2.06 µM (inactive) | 1.58 µM (inactive) | 1.92 µM (inactive) | 2.83 µM (inactive) | 2.32 µM (inactive) | 1.59 µM (inactive) | 2.58 µM (inactive) | 1.78 µM (inactive) | – | – | –
COCc1nc2c(OC)c(-c3nc4ccc(N5CCN(C)CC5)cc4[nH]3)cc(OC)c2[nH]1 | > 100 µM (inactive) | 65.9 µM (inactive) | > 100 µM (inactive) | 99.8 µM (inactive) | 31.5 µM (inactive) | 33.1 µM (inactive) | 36.7 µM (inactive) | 29.7 µM (inactive) | 60.7 µM (inactive) | > 100 µM (inactive) | 20 µM (inactive) | 27.9 µM (inactive) | 52.1 µM (inactive) | 43.9 µM (inactive) | 4.3 µM (inactive) | 40.6 µM (inactive) | 17.7 µM (inactive) | – | – | –
COc1cc(CC2C(=O)OCC2Cc2ccc(OC)c(OC)c2)ccc1O (configuration not stated) | > 100 µM (inactive) | > 88.9 µM (inactive) | > 55.2 µM (inactive) | > 27.8 µM (inactive) | > 100 µM (inactive) | > 100 µM (inactive) | > 100 µM (inactive) | > 91.8 µM (inactive) | > 100 µM (inactive) | > 100 µM (inactive) | > 100 µM (inactive) | > 100 µM (inactive) | > 100 µM (inactive) | > 100 µM (inactive) | > 60.5 µM (inactive) | > 100 µM (inactive) | > 50.6 µM (inactive) | – | – | –
Nn1c(S)nnc1N/N=C1/C(=O)Nc2ccccc21 | 92.3 µM (inactive) | 83.8 µM (inactive) | – | > 100 µM (inactive) | > 100 µM (inactive) | – | 54.7 µM (inactive) | 80.4 µM (inactive) | 49.5 µM (inactive) | 56 µM (inactive) | 94 µM (inactive) | > 100 µM (inactive) | 43.7 µM (inactive) | 50.6 µM (inactive) | – | 78.2 µM (inactive) | > 100 µM (inactive) | > 100 µM (inactive) | 37.9 µM (inactive) | –
N=C1NC2(O)C(=O)c3ccccc3C2(O)N1 (configuration not stated) | > 100 µM (inactive) | > 100 µM (inactive) | – | > 100 µM (inactive) | > 100 µM (inactive) | – | > 100 µM (inactive) | > 100 µM (inactive) | > 100 µM (inactive) | > 100 µM (inactive) | > 100 µM (inactive) | > 100 µM (inactive) | > 100 µM (inactive) | > 100 µM (inactive) | > 100 µM (inactive) | > 100 µM (inactive) | > 100 µM (inactive) | – | – | > 100 µM (inactive)
O=C(c1ccc(Cl)cc1)N(C(=S)N1CCN(c2ccccn2)CC1)c1ccccc1 | – | > 100 µM (inactive) | – | – | > 100 µM (inactive) | – | > 100 µM (inactive) | 66.4 µM (inactive) | > 100 µM (inactive) | > 100 µM (inactive) | > 100 µM (inactive) | > 100 µM (inactive) | > 100 µM (inactive) | > 100 µM (inactive) | > 100 µM (inactive) | > 100 µM (inactive) | > 100 µM (inactive) | > 100 µM (inactive) | – | 78.3 µM (inactive)
CC12CCC([C@H](N3CCOCC3)/C1=N\OCCN1CCCC1)C2(C)C (some centres not stated) | > 100 µM (inactive) | > 100 µM (inactive) | – | > 100 µM (inactive) | > 100 µM (inactive) | – | > 100 µM (inactive) | > 100 µM (inactive) | > 100 µM (inactive) | > 100 µM (inactive) | > 100 µM (inactive) | > 100 µM (inactive) | > 100 µM (inactive) | > 100 µM (inactive) | > 100 µM (inactive) | > 100 µM (inactive) | > 100 µM (inactive) | > 100 µM (inactive) | – | > 100 µM (inactive)
CC(=O)O[C@H]1CCC2[C@@H]3CCC4c5nonc5CC[C@]4(C)C3CC[C@@]21C (some centres not stated) | > 10 µM (inactive) | 88.7 µM (inactive) | – | > 10 µM (inactive) | > 10 µM (inactive) | – | > 10 µM (inactive) | – | > 10 µM (inactive) | > 10 µM (inactive) | > 10 µM (inactive) | > 10 µM (inactive) | > 10 µM (inactive) | > 10 µM (inactive) | 51.3 µM (inactive) | > 10 µM (inactive) | > 10 µM (inactive) | > 10 µM (inactive) | – | > 10 µM (inactive)
N#CC(C(=O)/C(=N/N)C(C#N)c1ccccc1)c1ccccc1 (configuration not stated) | – | > 100 µM (inactive) | – | > 100 µM (inactive) | > 100 µM (inactive) | – | > 100 µM (inactive) | > 100 µM (inactive) | > 100 µM (inactive) | > 100 µM (inactive) | > 100 µM (inactive) | > 100 µM (inactive) | > 100 µM (inactive) | > 100 µM (inactive) | – | > 100 µM (inactive) | > 100 µM (inactive) | > 100 µM (inactive) | > 100 µM (inactive) | –
O=C1c2ccccc2C(=O)C2C3c4ccccc4C(c4ccccc43)C12 (configuration not stated) | – | 30.6 µM (inactive) | – | 14.7 µM (inactive) | 21.1 µM (inactive) | – | 50.2 µM (inactive) | 19.5 µM (inactive) | 12.6 µM (inactive) | 13.4 µM (inactive) | 12.5 µM (inactive) | – | 24.9 µM (inactive) | 23.9 µM (inactive) | 15.6 µM (inactive) | > 100 µM (inactive) | 23.7 µM (inactive) | 18.5 µM (inactive) | – | 19.1 µM (inactive)
CSc1c(CC(=O)Nc2ccc(Cl)cc2)n(Cc2ccccc2)c2ccccc12 | 8.26 µM (inactive) | 24.7 µM (inactive) | 15.1 µM (inactive) | 12.1 µM (inactive) | 39.4 µM (inactive) | 76.4 µM (inactive) | 25.5 µM (inactive) | > 100 µM (inactive) | 12.3 µM (inactive) | 12.9 µM (inactive) | 3 µM (inactive) | 14.2 µM (inactive) | 41.4 µM (inactive) | 32 µM (inactive) | 13 µM (inactive) | > 100 µM (inactive) | 24.8 µM (inactive) | – | – | –
CC1=Nc2ccccc2S(=O)(=O)N1 | > 100 µM (inactive) | > 100 µM (inactive) | – | > 100 µM (inactive) | > 100 µM (inactive) | – | > 100 µM (inactive) | > 100 µM (inactive) | > 100 µM (inactive) | > 100 µM (inactive) | > 100 µM (inactive) | > 100 µM (inactive) | > 100 µM (inactive) | > 100 µM (inactive) | > 100 µM (inactive) | > 100 µM (inactive) | > 100 µM (inactive) | > 100 µM (inactive) | – | > 100 µM (inactive)
CC(=O)NCCC1CN(C(=O)/C=C/I)c2ccccc21 (configuration not stated) | 6.98 µM (inactive) | 6.59 µM (inactive) | 5.42 µM (inactive) | 15.4 µM (inactive) | 5.51 µM (inactive) | 3.08 µM (inactive) | 4.62 µM (inactive) | 5.86 µM (inactive) | 9.79 µM (inactive) | 9.08 µM (inactive) | 8 µM (inactive) | 3.29 µM (inactive) | 14.7 µM (inactive) | 3.93 µM (inactive) | 16.8 µM (inactive) | 2.1 µM (inactive) | 7.48 µM (inactive) | – | – | –
O=C(CCN1CCN(c2ccccc2)CC1)N1CCc2c([nH]c3ccccc23)C1c1cccnc1 (configuration not stated) | 19.1 µM (inactive) | 20 µM (inactive) | – | 16.9 µM (inactive) | 15 µM (inactive) | – | 16.6 µM (inactive) | 16.7 µM (inactive) | 16.6 µM (inactive) | – | 18.7 µM (inactive) | 16.3 µM (inactive) | 18.1 µM (inactive) | 15.2 µM (inactive) | 28.8 µM (inactive) | 17.2 µM (inactive) | 15.9 µM (inactive) | 19.9 µM (inactive) | – | 17.5 µM (inactive)
CC1=C(CO)C(=O)O[C@@H]([C@@H](C)[C@H]2CC[C@H]3[C@@H]4C[C@@H](O)[C@@]5(O)CC=CC(=O)[C@]5(C)[C@H]4CC[C@]23C)C1 [JABOROSALACTONE D] | 18.7 µM (inactive) | 26.8 µM (inactive) | 27.7 µM (inactive) | 49.2 µM (inactive) | 33.1 µM (inactive) | 45 µM (inactive) | 19.1 µM (inactive) | 36 µM (inactive) | 31.3 µM (inactive) | 92.3 µM (inactive) | 31 µM (inactive) | 43.7 µM (inactive) | 63.8 µM (inactive) | 42.4 µM (inactive) | 25.9 µM (inactive) | 21.7 µM (inactive) | > 100 µM (inactive) | – | – | –
CO[C@H]1[C@@H](O)[C@@H](C)O[C@@H](O[C@H]2CC[C@@]3(C)[C@H](CC[C@@H]4[C@@H]3CC[C@]3(C)[C@@H](C5=CC(=O)OC5)CC[C@]43O)C2)[C@@H]1O [ODOROSIDE H] | 0.0787 µM (active) | 0.00304 µM (active) | 0.00514 µM (active) | 0.00474 µM (active) | 0.00573 µM (active) | 0.00767 µM (active) | 0.003 µM (active) | 0.00531 µM (active) | 0.00661 µM (active) | 0.00422 µM (active) | 0.00468 µM (active) | 0.0169 µM (active) | 0.00964 µM (active) | 0.00467 µM (active) | 0.00601 µM (active) | < 0.0025 µM (active) | 0.0109 µM (active) | – | – | –
